Each block holds one molecule with its values, some of them ahead of it.
Key:
TRPC6 channel [1] = biological target: T1, TRPC6 channel (Mus musculus, UniProt Q61143); assay: Whole-cell patch clamp assay, TRPC6 activation; type: cell-based; conditions: for activation effect for TRPC6 channel (whole-cell patch clamp): HEK293 cells clamped at -100~+100 mV
T1 construct: expressed in transfected cells; host or cells: HEK293
T1 sequence (Q61143 1-930): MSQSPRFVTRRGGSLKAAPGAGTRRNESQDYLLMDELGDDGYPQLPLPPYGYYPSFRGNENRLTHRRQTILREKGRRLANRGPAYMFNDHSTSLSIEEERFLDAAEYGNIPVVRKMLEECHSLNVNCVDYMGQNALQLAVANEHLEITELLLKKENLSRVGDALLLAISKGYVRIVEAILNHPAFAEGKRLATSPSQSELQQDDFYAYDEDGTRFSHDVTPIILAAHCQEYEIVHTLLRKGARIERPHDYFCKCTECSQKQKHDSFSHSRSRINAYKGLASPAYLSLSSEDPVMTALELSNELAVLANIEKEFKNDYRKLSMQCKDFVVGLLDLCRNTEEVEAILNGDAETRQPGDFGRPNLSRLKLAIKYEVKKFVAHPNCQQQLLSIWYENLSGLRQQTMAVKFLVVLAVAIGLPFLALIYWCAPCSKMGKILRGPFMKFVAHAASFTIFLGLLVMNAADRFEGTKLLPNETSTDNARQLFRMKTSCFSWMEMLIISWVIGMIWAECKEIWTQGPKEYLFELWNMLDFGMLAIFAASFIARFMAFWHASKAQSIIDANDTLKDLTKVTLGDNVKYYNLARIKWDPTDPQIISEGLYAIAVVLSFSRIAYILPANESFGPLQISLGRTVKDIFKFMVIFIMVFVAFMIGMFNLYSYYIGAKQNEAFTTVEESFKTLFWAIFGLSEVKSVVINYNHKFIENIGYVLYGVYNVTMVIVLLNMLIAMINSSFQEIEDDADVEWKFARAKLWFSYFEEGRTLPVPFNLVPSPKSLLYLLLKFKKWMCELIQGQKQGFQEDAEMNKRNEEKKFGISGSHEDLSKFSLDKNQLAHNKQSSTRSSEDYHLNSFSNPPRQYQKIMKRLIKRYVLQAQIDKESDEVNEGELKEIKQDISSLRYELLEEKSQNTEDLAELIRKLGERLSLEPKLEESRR
Text: HEK293 cells were clamped at −100˜+100 mV in the whole-cell recording mode.

mice TRPC6 = biological target: T2, mice TRPC6 (Mus musculus, UniProt Q61143); assay: Fluorescence calcium flux (Fluo4) detection of TRPC6 activation; type: cell-based; conditions: HEK293 cells expressing mice TRPC6
T2 construct: expressed in transfected cells; host or cells: HEK293
T2 sequence (Q61143 1-930): T1 sequence (Q61143 1-930)
Experimental: Similar fluorescence calcium flux was used to detect the effect of M085 on [Ca^2+] concentration in HEK293 cells expressing mice TRPC6. The cells were stained using Ca^2+ indicator Fluo4. At 30 s, 0.1 μM, 0.4 μM, 1.1 μM, 3.3 μM, 10 μM, 30 μM of M085 were added. […] Wherein, M086 was subjected to fluorescent calcium flux detection and fluorescent membrane potential detection, respectively.

TRPC6 ion channels = biological target: T3, TRPC6 ion channels (Mus musculus, UniProt Q61143); assay: Fluorescent membrane potential (FMP) detection of TRPC6 activation; type: cell-based; conditions: M085 at 0.4 μM~30 μM; HEK293 cells permanently transfected with TRPC6
T3 construct: expressed in transfected cells; host or cells: HEK293 co-expressing M5 muscarinic receptor
T3 sequence (Q61143 1-930): T1 sequence (Q61143 1-930)
Experimental: Pyrazolopyrimidines and their derivatives activated TRPC6 ion channels (FIG. 1). In HEK293 cells permanently transfected with TRPC6 ion channels, M085 was used as activator to detect the fluorescent membrane potential. Firstly, cells were stained with FLIPR membrane potential dyes (FMP). At 30 s, 0.1 μM, 0.4 μM, 1.1 μM, 3.3 μM, 10 μM, 30 μM of M085 were added, respectively.

[2] = tested on: HEK293 cells which were not transfected with TRPC6 ion channels; assay: Fluorescent membrane potential detection in non-transfected control cells; type: cell-based; conditions: M085 0.1-30 μM
TRPC6 channel [3] = biological target: T1, TRPC6 channel; assay: Whole-cell patch clamp assay, TRPC6 inhibition (carbachol-activated); type: cell-based; conditions: for inhibition of TRPC6 channel (whole-cell patch clamp): HEK293 cells clamped at -100~+100 mV
Experimental: M107 is representative (FIG. 3B, C). HEK293 cells were clamped at −100˜+100 mV in whole-cell recording mode. TRPC6 ion channels activated by carbachol (CCh, 30 μM) was inhibited by M107 (20 μM). At −100˜+100 mV, 20 μM of M107 provided 60% and 20% of inhibition rate for CCh (n=5).

[4] = tested on: Du145 human prostate cancer cell line; assay: MTT cytotoxic activity, Du145; type: cell-based; conditions: 72 h, read-out: IC50 cytotoxic activity in vitro
Experimental: (§1) After the cells in logarithmic growth phase were digested with 0.25% trypsin-EDTA, a cell suspension at a certain concentration was prepared. Depending on cell growth rate, they were inoculated in 96-well plates at 1000-2000 cells/well. To each well 100 μL of the cell suspension was added. After 24 h, fresh medium containing various concentrations of the compounds or the corresponding solvent were added at 100 μL per well (DMSO final concentration <0.1%). 5 to 7 dose groups were arranged for each test compound. Each group comprised at least 3 parallel wells. After further culturing at 37° C. for 72 h, the supernatant was discarded. 100 μL of fresh serum-free medium containing 0.5 mg/mL MTT was added to each well, further cultured for 2 h. After the supernatant was discarded, to each well was added 200 μL DMSO to dissolve MTT formazan precipitate. After mixing homogeneously by a microoscillator, optical density (OD) was measured at 450 nm of reference wavelength, and at 570 nm of detection wavelength by a Microplate reader. The tumor cells treated by the solvent control was used as the control group. The inhibition rate of tumor cells for the compounds were calculated by the following equation and IC50 was calculated by the half of inhibition equation: […]

[5] = tested on: RM-1 mouse prostate cancer cell line; assay: MTT cytotoxic activity, RM-1; type: cell-based; conditions: RM-1, MTT, 72 h; read-out: IC50 cytotoxic activity in vitro
Experimental: as §1

[6] = tested on: Lncap human prostate cancer cell line; assay: MTT cytotoxic activity, Lncap; type: cell-based; conditions: 72 h, read-out: IC50 cytotoxic activity in vitro
Experimental: as §1

[7] = tested on: MCF7 human breast cancer cell line; assay: MTT cytotoxic activity, MCF7; type: cell-based; conditions: 72 h, read-out: IC50 cytotoxic activity in vitro
Experimental: as §1

[8] = tested on: H460 human lung cancer cell line; assay: MTT cytotoxic activity, H460; type: cell-based; conditions: 72 h, read-out: IC50 cytotoxic activity in vitro
Experimental: as §1

[9] = tested on: prostate cancer RM-1 transplanted tumor; assay: Mice prostate cancer RM-1 transplanted tumor model; type: in vivo; conditions: for Inhibition rate of tumor growth / Tumor weight / body weight of Animals, Final / body weight of Animals, Initial: male C57/BL6 mice, i.p., Docetaxel 10 mg/kg × 3, M110 50 mg/kg × 4
Experimental: Male C57/BL6 mice (18-22 g) were used. The experiment procedures are summarized as follows: mice who had prostate cancer RM-1 and grown well were sacrificed by cervical dislocation. Under sterile conditions, tumor mass growing well was stripped off, homogenized, diluted with physiological saline in 1:4. Each mouse was inoculated 0.2 mL of the tumor solution in the armpit and back (approximately 2*10^6 cells). On the next day, the animals were randomized into groups and the administration began. Compound M110 was administered at 50 mg/kg by intraperitoneal injection at 24 h after inoculation. The dosing volume was 0.1 mL/10 g. At the same time, docetaxel control group and solvent control group were set. As for the docetaxel group, the animals were administered by intraperitoneal injection at 10 mg/kg dose, the dosing volume was 0.1 mL/10 g. After continuous administration for 10 days, the animals were sacrificed by cervical dislocation, weighed the body and the tumor, respectively. Inhibition rate of tumor growth (%) was calculated, and the results were statistically processed.

[10] = tested on: KB human oral epithelium carcinoma cell line; assay: MTT cytotoxic activity, KB; type: cell-based; conditions: 72 h, read-out: IC50 cytotoxic activity in vitro
Experimental: as §1

[11] = tested on: Pc3 human prostate cancer cell line; assay: MTT cytotoxic activity, Pc3; type: cell-based; conditions: 72 h, read-out: IC50 cytotoxic activity in vitro
Experimental: as §1

- activation effect for TRPC6 channel (whole-cell patch clamp) (TRPC6 channel [1]): have activation effect
- activating effect for TRPC6 ion channel (fluorescence calcium flux) (mice TRPC6): exhibited activating effect
Compound: Cc1nn2c(O)cc(C3CCN(C(=O)OCc4ccccc4)CC3)nc2c1-c1ccc(Cl)cc1 [Compound M091]

- activation effect for TRPC6 channel (whole-cell patch clamp) (TRPC6 channel [1]): have activation effect
- activating effect for TRPC6 ion channel (fluorescence calcium flux) (mice TRPC6): exhibited activating effect
Compound: CCOC(=O)N1CCC(c2cc(O)n3nc(C)c(-c4ccc(C(F)(F)F)cc4)c3n2)CC1 [Compound M092]

- inhibition rate for CCh-activated TRPC6 current, first value (TRPC6 channel [3]; 20 μM compound, CCh 30 μM, at -100~+100 mV (first printed, -100 mV), n=5): 60%
- inhibition rate for CCh-activated TRPC6 current, second value (TRPC6 channel [3]; 20 μM compound, CCh 30 μM, at -100~+100 mV (second printed, +100 mV), n=5): 20%
- inhibition of TRPC6 channel (whole-cell patch clamp) (TRPC6 channel [3]): inhibited TRPC6 channel
Compound: Cc1nn2c(O)cc(C3CCN(C(=O)OC(C)(C)C)CC3)nc2c1-c1ccc(F)cc1 [Compound M107]

- inhibition of TRPC6 channel (whole-cell patch clamp) (TRPC6 channel [3]): inhibited TRPC6 channel
Compound: CCOC(=O)N1CCC(C)(c2cc(O)n3nc(C)c(-c4ccc(F)cc4)c3n2)CC1 [Compound M110]
- IC50 [4]: > 100 µM
- IC50 [5]: 25.6 µM
- IC50 [6]: 4.33 µM
- IC50 [7]: 12.1 µM
- IC50 [8]: 21.9 µM
- Inhibition rate of tumor growth [9]: 23%
- Tumor weight [9]: 2.0 ± 0.73 g
- body weight of Animals, Final [9]: 21.33 ± 1.51 g
- body weight of Animals, Initial [9]: 20.00 ± 0.76 g
- pharmacological activity in vivo on RM-1 transplanted tumor growth ([9]; mice): inhibit growth of prostate cancer RM-1 transplanted tumor
- IC50 [10]: 9.47 µM
- IC50 [11]: 30.8 µM

Second part, the molecule before the results:

Compound: CCOC(=O)N1CCC(c2cc(O)n3nc(C)c(-c4ccc(F)cc4)c3n2)CC1 [Compound M085]
- activation effect for TRPC6 channel (whole-cell patch clamp) (TRPC6 channel [1]): have activation effect
- EC50 (TRPC6 channel [1]; HEK293 cells, concentration response 0.04-10 μM, n=5-7): 2.5 µM
- activating effect for TRPC6 ion channel (fluorescence calcium flux) (mice TRPC6): exhibited activating effect
- intracellular [Ca2+] (mice TRPC6; M085 at 3.3 μM~30 μM, Fluo4): significantly increased
- membrane depolarization (FMP fluorescence) (TRPC6 ion channels): increase of membrane depolarization
- fluorescent change (FMP) [2]: no significantly fluorescent change

Compound: Cc1nn2c(O)cc(C3CCN(C(=O)OCc4ccccc4)CC3)nc2c1-c1ccc(F)cc1 [Compound M086]
- activation effect for TRPC6 channel (whole-cell patch clamp) (TRPC6 channel [1]): have activation effect
- activating effect for TRPC6 ion channel (fluorescence calcium flux) (mice TRPC6): exhibited activating effect

Compound: CC(=O)O[C@@]12CO[C@@H]1C[C@H](O)[C@@]1(C)C(=O)[C@H](O)C3=C(C)[C@@H](OC(=O)[C@H](O)[C@@H](NC(=O)OC(C)(C)C)c4ccccc4)C[C@@](O)([C@@H](OC(=O)c4ccccc4)[C@H]21)C3(C)C [Docetaxel, docetaxel, reference compound]
- Inhibition rate of tumor growth [9]: 32%
- Tumor weight [9]: 1.77 ± 0.61 g
- body weight of Animals, Final [9]: 18.43 ± 2.17 g
- body weight of Animals, Initial [9]: 20.00 ± 1.07 g

From patent US9499552B2, “Pyrazolo[1,5-A]pyrimidine derivative and use of anti-tumor thereof” (YANTAI UNIVERSITY, priority 2014, dated 2016)
